From PubChem BioAssay (NCI)
Several values for one entry are separate records, joined by “and”; a condition that tells them apart may be missing. Identical values can stand only once.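 Each compound was tested at five concentrations against cells in 96-well plates for 48 hours. GI50 = concentration required for 50% inhibition of growth. Definition used: TGI = concentration required for complete inhibition of growth.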 Activity calls are given as the source filed them. No stated cut-off is given here; in the data, active means GI50 below about 0.43 µM; inactive means the rest.

Legend:
Experiment in all cases: NCI-60 cell line screen, 48 h
[1] = test system: RXF-631 renal
[2] = test system: DLD-1 colon
[3] = test system: KM20L2 colon
[4] = test system: SNB-78 CNS
[5] = test system: HOP-18 NSCLC
[6] = test system: DU-145 prostate
[7] = test system: PC-3 prostate
[8] = test system: HS 578T breast
[9] = test system: T-47D breast

Row | Structure (SMILES) | TGI [1] | TGI [2] | TGI [3] | TGI [4] | TGI [5] | other results
1 | NC(N)=NS(=O)(=O)c1ccc(NCCc2c3ccccc3nc3ccccc23)cc1 | > 100 µM | > 100 µM | > 100 µM |  |  | 
2 | COc1ccc(C2ON(c3cccc(C)n3)CC=C2C)cc1 (stereo not drawn) | > 100 µM | > 100 µM | > 100 µM | > 100 µM | > 100 µM | 
3 | Cc1cccc(C)c1NC(=O)C(=O)Nn1c(NN)nc2ccccc2c1=O | > 100 µM |  | > 100 µM | > 100 µM | > 100 µM | 
4 | CC(C)CC(NC(=O)OC(C)(C)C)C(=O)Nc1ccc(Nc2nc(F)nc(-c3c4ccccc4cn3C)n2)cc1 (stereo not drawn) |  | > 58 µM | > 100 µM | > 68 µM | > 100 µM | TGI [6]: 39.7 µM; TGI [7]: > 100 µM; TGI [8]: > 100 µM; TGI [9]: > 100 µM
5 | O=C1C(=Cc2c(O)cc(O)cc2O)C(=O)c2ccccc21 |  | > 55.2 µM | > 57.6 µM | 62.1 µM | 58.7 µM | TGI [6]: 38.5 µM
6 | CN(C)CC/[N+]([O-])=C(/c1ccccc1)C12CC3CC(CC(C3)C1)C2 | 32.8 µM | 32 µM | 24.5 µM | 41.8 µM | 35.6 µM | 
7 | COC(C)(C)C/C=C/C(C)=C/C=C/C(C)=C\C=C\C(C)=C\C=C\C=C(C)\C=C\C=C(C)\C=C\C=C(C)\C=C\CC(C)(C)OC |  | > 150 µg/mL |  |  |  | outcome [1]: inactive; GI50 [2]: > 150 µg/mL; outcome [3]: inactive
8 | Cc1cccc(NC(=O)c2cccc([N+](=O)[O-])c2O)c1C |  | > 100 µM | 83.2 µM | > 100 µM | > 100 µM | TGI [6]: > 100 µM; TGI [7]: > 100 µM; TGI [8]: > 100 µM; TGI [9]: > 100 µM
9 | O=Cc1c(O)c(C(=O)Nc2ccc3[nH]c(=O)[nH]c3c2)cc2ccccc12 | > 100 µM | > 100 µM | > 100 µM | > 100 µM | > 100 µM | 
10 | Cc1cc(C)cc(NC(N)=S)c1 | > 100 µM | > 100 µM | > 100 µM | > 100 µM |  | 
11 | Cc1cc(Cl)ccc1NC(=O)CC1SC(=Nc2ccccc2Cl)NC1=O (stereo not drawn) | > 100 µM | > 100 µM | 88.2 µM | > 100 µM | > 100 µM | 
12 | CC1OC(n2cc(F)c(=O)[nH]c2=O)C=CC1=O (stereo not drawn) | > 100 µM | 36 µM | 34.6 µM | 37.1 µM | 34.1 µM | 
13 | NCCCNCCCCNC(=O)C(O)NC(=O)CCCCCCN=C(N)N (stereo not drawn) |  | 750 µM | 734 µM | > 750 µM | 744 µM | GI50 [6]: 2890 µM; TGI [6]: > 5000 µM; GI50 [7]: 1590 µM; TGI [7]: > 5000 µM; GI50 [8]: 2070 µM; TGI [8]: 750 µM and 3990 µM; GI50 [9]: 2130 µM; TGI [9]: > 5000 µM
14 | CN(C)c1ccc(/C=c2\sc3nc4ccccc4n3c2=O)cc1 | > 100 µM | > 100 µM | > 100 µM | > 100 µM | > 100 µM | 
15 | CC(=O)OCC1OC(n2c(-c3ccc(C)cc3)cc(-c3ccccc3)c(C#N)c2=O)C(OC(C)=O)C(OC(C)=O)C1OC(C)=O (stereo not drawn) | > 100 µM | > 100 µM | > 100 µM | > 100 µM |  | 
16 | S=P(N1CC1)(N1CC1)N1CC1 |  | 77.2 µM and 682 µM | 62 µM and 464 µM | 960 µM | 640 µM | GI50 [6]: 11.9 µM; TGI [6]: 520 µM and 97.8 µM; GI50 [2]: 33.2 µM; GI50 [7]: 310 µM; TGI [7]: 805 µM and 834 µM; GI50 [4]: 46.1 µM; GI50 [3]: 30 µM; GI50 [8]: 534 µM; TGI [8]: 913 µM and 962 µM; GI50 [5]: 41.5 µM; GI50 [9]: 45.5 µM; TGI [9]: 950 µM and 913 µM
17 | Cn1cc2ccccc2c1-c1nc(F)nc(OCC(=O)[C@H]2CCC3[C@@H]4CCC5=CC(=O)CC[C@]5(C)C4[C@@H](O)C[C@@]32C)n1 (stereo partly drawn) | 6.82 µM | 22.5 µM | > 57 µM | 47.3 µM | 29.2 µM | 
18 | COc1cc2c(cc1OC)/C(=C\c1ccccc1N)C(=O)OC2 | 23.5 µM | 29.3 µM | 43.4 µM |  | 26.8 µM | 
19 | Cc1cc2c(C)nn(Cc3ccc(Cl)cc3)c2c(C#N)c1C | > 100 µM |  | > 100 µM | > 100 µM | > 100 µM | 
20 | C=C(c1ccccc1)[C@@]1(O)CC[C@@H]1N(CC#N)Cc1ccccc1 |  | 36.4 µM | > 100 µM | > 85.2 µM | 28 µM | TGI [6]: > 100 µM; TGI [7]: 64.3 µM; TGI [8]: 65 µM; TGI [9]: 38.2 µM
21 | C=CCC1C(=O)CC2(C)CC(=O)C(CC=C)C12C (stereo not drawn) |  | > 100 µM | > 100 µM | > 100 µM | > 100 µM | 
22 | CCN(CC)c1ccc(N=Nc2ccc(-c3nc4ccc[n+](C)c4o3)cc2)cc1 | > 100 µM | 20.1 µM | 25.9 µM | 32.6 µM | 38.3 µM | 
